# Active and inactive are the calls of the source. The rule behind the calls is not given here.
# System: not listed separately
# Test: Disruption of recombinant GST-tagged human Aha1/His6-tagged full length human Hsp90alpha protein-protein interaction expressed in Escherichia coli incubated for 4 hrs by AlphaLisa assay
row,IC50,SMILES
1,4.04 µM,COc1cccc(-c2cc(C(=O)Nc3ccc([N+](=O)[O-])cc3)ccc2OC)c1
2,9.05 µM,COc1ccc(C(=O)Nc2ccc(C(F)(F)F)cc2)cc1-c1c(OC)cccc1OC
3,> 10 µM,COc1ccc(C(=O)Nc2ccc(C(F)(F)F)cc2)c(-c2ccc(Cl)cc2)c1
4,3.32 µM,COc1cccc(-c2cc(-c3nnnn3-c3ccc(C(F)(F)F)cc3)ccc2OC)c1
5,> 10 µM,COc1ccc(C(=O)Nc2ccc(C(F)(F)F)cc2)cc1-c1ccccc1O
6,> 10 µM,COc1ccc(C(=O)Nc2ccc(C(F)(F)F)cc2)cc1-c1cccc(C(F)(F)F)c1
7,> 10 µM,COc1ccc(C(=O)Nc2ccc(C(F)(F)F)cc2)cc1-c1ccc(Cl)c(Cl)c1
8,> 10 µM,COc1cccc(-c2cc(C(=O)Nc3ccc(Cl)cc3Cl)ccc2OC)c1
9,> 10 µM,COc1ccc(-c2cc(OC)ccc2C(=O)Nc2ccc(C(F)(F)F)cc2)cc1
10,> 10 µM,COc1cccc(-c2cc(C(=O)Nc3ccccc3Cl)ccc2OC)c1
11,> 10 µM,COc1cc(NC(=O)c2ccc(OC)c(-c3cccc(OC)c3)c2)cc(OC)c1
12,6.39 µM,COc1ccc(C(=O)Nc2ccc(C(F)(F)F)cc2)cc1-c1ccc(O)cc1
13,> 10 µM,COc1ccc(C(=O)Nc2ccc(C(F)(F)F)cc2)cc1-c1cccc(OC)c1OC
14,> 10 µM,COc1cccc(-c2cc(C(=O)Nc3cccc(Cl)c3)ccc2OC)c1

# Second part, the compound before the results:
row,SMILES,IC50
1,COc1ccc(NC(=O)c2ccc(OC)c(-c3cccc(OC)c3)c2)cc1,> 10 µM
2,COc1ccccc1-c1cc(C(=O)Nc2ccc(C(F)(F)F)cc2)ccc1OC,9.65 µM
3,COc1ccc(C(=O)Nc2ccc(C(F)(F)F)cc2)c(-c2ccc(Cl)c(C(F)(F)F)c2)c1,> 10 µM
4,COc1ccc(C(=O)Nc2ccc(C(F)(F)F)cc2)cc1-c1cccc(N(C)C)c1,3.36 µM
5,COc1cccc(-c2cc(C(=O)Nc3ccc(O)cc3)ccc2OC)c1,> 10 µM
6,COc1ccc(C(=O)Nc2ccc(C(F)(F)F)cc2)c(-c2cccc(O)c2)c1,> 10 µM
7,COC(=O)c1ccc(NC(=O)c2ccc(OC)c(-c3cccc(OC)c3)c2)cc1,> 10 µM
8,COc1cccc(-c2cc(C(=O)Nc3cccc(Cl)c3Cl)ccc2OC)c1,> 10 µM
9,COc1ccc(C(=O)Nc2ccc(C(F)(F)F)cc2)cc1-c1cccc(O)c1,> 10 µM
10,COc1ccc(C(=O)Nc2ccc(C(F)(F)F)cc2)cc1-c1ccc(C(F)(F)F)cc1,> 10 µM
11,COc1cccc(-c2cc(C(=O)Nc3ccc(F)cc3)ccc2OC)c1,6.32 µM
12,COc1ccc(C(=O)Nc2ccc(C(F)(F)F)cc2)cc1-c1cccc(CO)c1,> 10 µM
13,COc1ccc(-c2cc(C(=O)Nc3ccc(C(F)(F)F)cc3)ccc2OC)cc1,> 10 µM
14,COc1ccc(C(=O)Nc2ccc(C(F)(F)F)cc2)cc1-c1cccc(N)c1,7.23 µM
15,COc1ccc(C(=O)Nc2ccc(C(F)(F)F)cc2)cc1-c1ccc(Cl)cc1,> 10 µM
16,COc1cccc(-c2cc(OC)ccc2C(=O)Nc2ccc(C(F)(F)F)cc2)c1,> 10 µM

row,SMILES,IC50
1,COC(=O)c1cccc(NC(=O)c2ccc(OC)c(-c3cccc(OC)c3)c2)c1,> 10 µM
2,COc1cccc(-c2cc(C(=O)Nc3ccc(OC)cc3OC)ccc2OC)c1,9.53 µM
3,COc1ccc(C(=O)Nc2ccc(C(F)(F)F)cc2)c(-c2ccccc2OC)c1,> 10 µM
4,COc1ccc(C(=O)Nc2ccc(C(F)(F)F)cc2)c(-c2ccc(Cl)c(Cl)c2)c1,> 10 µM
5,COc1ccc(C(=O)Nc2ccc(C(F)(F)F)cc2)cc1-c1cccc(Cl)c1,> 10 µM
6,COc1ccc(C(=O)Nc2ccc(C(F)(F)F)cc2)cc1-c1ccccc1,> 10 µM
7,COc1cccc(-c2cc(C(=O)Nc3ccc(C#N)cc3)ccc2OC)c1,8.57 µM
8,COc1ccc(C(=O)Nc2ccc(C(F)(F)F)cc2)cc1-c1cccc(F)c1,> 10 µM
9,COc1ccc(C(=O)Nc2ccc(C(F)(F)F)cc2)cc1-c1ccc(Cl)c(C(F)(F)F)c1,> 10 µM
10,COc1cccc(-c2cc(C(=O)Nc3ccc(Cl)cc3)ccc2OC)c1,6.03 µM
11,COc1cccc(-c2cc(C(=O)Nc3ccc(C(F)(F)F)cc3)ccc2OC)c1,4.83 µM
12,COc1ccc(C(=O)Nc2ccc(C(F)(F)F)cc2)c(-c2ccc(O)cc2)c1,> 10 µM
13,COc1cccc(-c2cc(C(=O)Nc3ccccc3)ccc2OC)c1,> 10 µM
14,COc1cccc(-c2cc(C(=O)Nc3cccc([N+](=O)[O-])c3)ccc2OC)c1,> 10 µM
15,COc1ccc(C(=O)Nc2ccc(C(F)(F)F)cc2)c(-c2ccccc2)c1,> 10 µM

# Organism: Homo sapiens
# Test: Disruption of recombinant human Aha1/Hsp90 alpha protein-protein interaction expressed in Escherichia coli […] assessed as inhibition of recombinant human P301L tau aggregation incubated for 30 mins by ThT fluorescence assay
row,Activity,SMILES
1,Active,COc1cccc(-c2cc(-c3nnnn3-c3ccc(C(F)(F)F)cc3)ccc2OC)c1
2,Active,COc1ccc(C(=O)Nc2ccc(C(F)(F)F)cc2)cc1-c1cccc(N(C)C)c1

# System: SH-SY5Y
# Test: Disruption of Aha1/Hsp90 alpha protein-protein interaction in human SH-SY5Y cells lysate at 10 uM incubated for 24 hrs by co-immunoprecipitation assay
# Type: subcellular
row,Activity,SMILES
1,Active,COc1cccc(-c2cc(-c3nnnn3-c3ccc(C(F)(F)F)cc3)ccc2OC)c1
2,Active,COc1ccc(C(=O)Nc2ccc(C(F)(F)F)cc2)cc1-c1cccc(N(C)C)c1
3,Active,COc1cccc(-c2cc(C(=O)Nc3ccc(C(F)(F)F)cc3)ccc2OC)c1

# System: SK-BR-3
# Test: Disruption of Aha1/Hsp90 protein-protein interaction in human SK-BR-3 cells lysate at 10 uM incubated for 24 hrs by co-immunoprecipitation assay
# Type: subcellular
row,Activity,SMILES
1,Active,COc1cccc(-c2cc(-c3nnnn3-c3ccc(C(F)(F)F)cc3)ccc2OC)c1
2,Active,COc1ccc(C(=O)Nc2ccc(C(F)(F)F)cc2)cc1-c1cccc(N(C)C)c1
3,Active,COc1cccc(-c2cc(C(=O)Nc3ccc(C(F)(F)F)cc3)ccc2OC)c1
